In publication PMC8155022 (Scientific Reports, 2021):
Read-outs that look alike come from different tables or passages of the source.

Columns and labels:
IRAK4(h) = target: T1, IRAK4(h) (Homo sapiens, UniProt Q9NWZ3); experiment: Kinase panel; format: biochemical
T1 construct: purchased Cerep (receptors, ion channels, transporters); Eurofins Panlabs (kinases)
Experimental: (§2) Kinase selectivity was conducted by Eurofins Panlabs Inc (St Charles, MO).

CCR1 (h) = target: T2, CCR1 (h) (Homo sapiens, UniProt P32246); experiment: Cerep panel; format: binding
T2 construct: purchased Cerep (receptors, ion channels, transporters); Eurofins Panlabs (kinases)
Experimental: (§3) A panel of 52 different receptors, ion channels and transporters was tested by Cerep, Inc. (Redmond, WA).

CHK2(h) = target: T3, CHK2(h) (Homo sapiens, UniProt O96017); experiment: Kinase panel; format: biochemical
T3 construct: purchased Cerep (receptors, ion channels, transporters); Eurofins Panlabs (kinases)
Experimental: as §2

CAR = target: T4, CAR (Homo sapiens, UniProt Q14994); experiment: nuclear receptor cellular GAL4 reporter assay; format: cell-based; conditions: agonist and antagonist mode; read-out: potency in agonist and antagonist mode
T4 construct: expressed in transfected cells

Beagle dogs = experiment: 1-month GLP toxicity study in dogs; format: in vivo; conditions: dog
Experimental: (§1) The type of study plan was reviewed and agreed by the Laboratory Animal Welfare Officer and the Animal Ethical Committee (officially known as Dierexperimentencommissie (DEC) Charles River Den Bosch), as required by the Dutch Act on Animal Experimentation (February 1997). Both rat and dog studies were performed in AALAC accredited Charles River Laboratories in the Netherlands. Studies in rats were conducted with 0, 25, 100, and 400 mg/kg per day (n = 10/sex/group) for 1 month. An additional 5 animals/sex in vehicle and high dose were allowed to continue for a 1-month treatment-free recovery period. Studies in dogs were conducted with 0, 3, 10, and 30 mg/kg per day (n = 4/sex/group) for 1 month. A treatment-free recovery period of 1 month (additional 2 dogs/sex/group) was included for both vehicle controls and high dose groups. […] Rats and dogs were examined for mortality, clinical signs, ophthalmoscopic changes, body weight, food consumption, hematology, clinical chemistry, anatomic pathology, and toxicokinetics. In addition, dogs were examined for electrocardiographic changes. Rats and dogs were also assessed for reversal of any effects following a 1-month recovery period. These studies were conducted in compliance with good laboratory practice (GLP) regulations.

[1] = 1-month GLP toxicity study in dogs; format: in vivo; conditions: Beagle, in vivo, dog; for AUC(0-t) / Cmax: po, 3 mg/kg; for AUC(0-t): read-out: AUC0-24 h at NOAEL; for Cmax: read-out: Cmax at NOAEL
Experimental: as §1

LXRβ = target: T5, LXRβ (Homo sapiens, UniProt P55055); experiment: nuclear receptor cellular GAL4 reporter assay; format: cell-based; conditions: agonist and antagonist mode; read-out: potency in agonist and antagonist mode
T5 construct: expressed in transfected cells

MAPK1(h) = target: T6, MAPK1(h) (Homo sapiens, UniProt P27361); experiment: Kinase panel; format: biochemical
T6 construct: purchased Cerep (receptors, ion channels, transporters); Eurofins Panlabs (kinases)
Experimental: as §2

CHK1(h) = target: T7, CHK1(h) (Homo sapiens, UniProt O14757); experiment: Kinase panel; format: biochemical
T7 construct: purchased Cerep (receptors, ion channels, transporters); Eurofins Panlabs (kinases)
Experimental: as §2

hNav1.5 = hNav1.5 (Homo sapiens, UniProt Q14524); experiment: follow-up functional study; format: cell-based; conditions: read-out: IC50 in follow-up functional studies
[2] = phase 1 single ascending dose study, pharmacokinetics; format: in vivo, human; conditions: for Tmax: median (range)
Experimental: Based on mean values, dose normalized overall exposure (AUC216h, AUC∞) also appeared to increase proportionally with dose.
Informed consent was obtained from all participants. No formal sample size and power calculations were performed.
Plasma samples with K2EDTA anticoagulant were treated with acetonitrile for protein extraction then processed with liquid chromatography coupled to tandem mass spectrometry. Reversed-phase HPLC separation was used and tandem MS/MS detection was set in TIS positive mode. […] All the data reported in sample analysis and validation met the predefined acceptance criteria and fulfilled the requirements and recommendations in the current FDA guidance for bioanalytical method validations and analysis.

[3] = test system: human CD4+ T cells under Th17 differentiation; experiment: in vitro human Th17 differentiation, cytokine production
Experimental: On day 4, supernatants were analyzed for IL-17A, IL-17F, IL-22 and IFNγ production.
Total CD4^+ T cells were isolated from peripheral blood mononuclear cells (PBMCs) of healthy donors using a CD4^+ T cell Isolation Kit II (Miltenyl Biotec, Auburn, CA), following the manufacturer’s instructions.
In vitro human Th17 and Th1 differentiation
Total CD4+ T cells were isolated from the peripheral blood mononuclear cells (PBMCs) of healthy donors
using a CD4+ T cell Isolation Kit II (Miltenyl Biotec, Auburn, CA), following the manufacturer’s
instructions. Isolated T cells were resuspended in culture medium and added to a 96-well plate at 1×105
beads (prepared using human T cell activation/expansion kit, Miltenyi Biotec) at final concentration of
3x10^6/mL, and cocktail for either Th17 differentiation (10 µg/mL anti-IL-4, 10 µg/mL anti-IFN, 10 ng/mL
IL-1β, 10 ng/mL IL-23, 50 ng/mL IL-6, 3 ng/mL TGFβ and 20 U/mL IL-2), or for Th1 differentiation (10
µg/mL anti-IL-4, 10 ng/mL IL-12, and 20 U/mL IL-2). Cells were cultured at 37°C and 5% CO2 for 3 days.
Supernatants were assayed for accumulated cytokines using MSD multi-spot assay (Meso Scale
Discovery, Rockville, MD) or R&D ELISA kit.

rat bone marrow = experiment: in vivo rat micronucleus test on bone marrow
CCKA (h) (CCK1) = target: T8, CCKA (h) (CCK1) (Homo sapiens, UniProt P32238); experiment: Cerep panel; format: binding
T8 construct: purchased Cerep (receptors, ion channels, transporters); Eurofins Panlabs (kinases)
Experimental: as §3

NEK2(h) = target: T9, NEK2(h) (Homo sapiens, UniProt P51955); experiment: Kinase panel; format: biochemical
T9 construct: purchased Cerep (receptors, ion channels, transporters); Eurofins Panlabs (kinases)
Experimental: as §2

CK2α2(h) = target: T10, CK2α2(h) (Homo sapiens, UniProt P19784); experiment: Kinase panel; format: biochemical
T10 construct: purchased Cerep (receptors, ion channels, transporters); Eurofins Panlabs (kinases)
Experimental: as §2

PXR = target: T11, PXR (Homo sapiens, UniProt O75469); experiment: nuclear receptor cellular GAL4 reporter assay; format: cell-based
T11 construct: expressed in transfected cells

MC4 (h) = target: T12, MC4 (h) (Homo sapiens, UniProt P32245); experiment: Cerep panel; format: binding
T12 construct: purchased Cerep (receptors, ion channels, transporters); Eurofins Panlabs (kinases)
Experimental: as §3

5-HT5A (h) = target: T13, 5-HT5A (h) (Homo sapiens, UniProt P47898); experiment: Cerep panel; format: binding
T13 construct: purchased Cerep (receptors, ion channels, transporters); Eurofins Panlabs (kinases)
Experimental: as §3

Plk1(h) = target: T14, Plk1(h) (Homo sapiens, UniProt P53350); experiment: Kinase panel; format: biochemical
T14 construct: purchased Cerep (receptors, ion channels, transporters); Eurofins Panlabs (kinases)
Experimental: as §2

CDK1/cyclinB(h) = target: T15, CDK1/cyclinB(h) (Homo sapiens, UniProt P06493); experiment: Kinase panel; format: biochemical
T15 construct: purchased Cerep (receptors, ion channels, transporters); Eurofins Panlabs (kinases)
Experimental: as §2

[4] = both sexes, human, plasma, po, 10 mg, 10 mg single oral dose, fasted, n=6, mean (SD)
[5] = both sexes, human, plasma, po, 30 mg, 30 mg single oral dose, fasted, n=6, mean (SD)
[6] = both sexes, human, plasma, po, 100 mg, 100 mg single oral dose, fasted, n=9, mean (SD)
[7] = both sexes, human, plasma, po, 100 mg, 100 mg single oral dose, fed, n=9, mean (SD)
[8] = both sexes, human, plasma, po, 200 mg, 200 mg single oral dose, fasted, n=6, mean (SD)

T10 sequence (P19784 whole entry): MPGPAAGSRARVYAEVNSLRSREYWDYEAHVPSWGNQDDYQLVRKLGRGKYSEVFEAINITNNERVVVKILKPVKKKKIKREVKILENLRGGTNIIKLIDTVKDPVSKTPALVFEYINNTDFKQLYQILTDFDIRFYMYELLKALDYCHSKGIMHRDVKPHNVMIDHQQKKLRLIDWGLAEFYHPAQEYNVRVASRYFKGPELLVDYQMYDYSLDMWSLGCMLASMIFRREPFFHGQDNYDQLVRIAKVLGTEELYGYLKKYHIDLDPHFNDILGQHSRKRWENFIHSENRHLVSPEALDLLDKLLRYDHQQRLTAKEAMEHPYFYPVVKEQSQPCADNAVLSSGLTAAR
T14 sequence (P53350 whole entry): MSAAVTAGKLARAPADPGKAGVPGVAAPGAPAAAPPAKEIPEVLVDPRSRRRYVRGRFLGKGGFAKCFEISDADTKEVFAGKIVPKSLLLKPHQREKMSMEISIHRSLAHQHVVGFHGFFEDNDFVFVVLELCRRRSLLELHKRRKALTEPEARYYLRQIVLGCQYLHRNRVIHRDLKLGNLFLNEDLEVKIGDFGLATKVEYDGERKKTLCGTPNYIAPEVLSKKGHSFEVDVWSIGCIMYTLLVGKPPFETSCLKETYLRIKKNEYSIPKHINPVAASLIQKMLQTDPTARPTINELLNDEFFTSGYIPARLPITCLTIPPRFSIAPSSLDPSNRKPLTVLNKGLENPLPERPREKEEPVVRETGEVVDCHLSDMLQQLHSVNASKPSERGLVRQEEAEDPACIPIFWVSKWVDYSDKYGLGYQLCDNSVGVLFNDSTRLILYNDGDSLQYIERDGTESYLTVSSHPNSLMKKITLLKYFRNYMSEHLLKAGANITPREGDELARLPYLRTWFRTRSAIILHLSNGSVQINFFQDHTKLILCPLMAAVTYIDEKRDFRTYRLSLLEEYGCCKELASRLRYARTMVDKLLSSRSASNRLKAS
T15 sequence (P06493 whole entry): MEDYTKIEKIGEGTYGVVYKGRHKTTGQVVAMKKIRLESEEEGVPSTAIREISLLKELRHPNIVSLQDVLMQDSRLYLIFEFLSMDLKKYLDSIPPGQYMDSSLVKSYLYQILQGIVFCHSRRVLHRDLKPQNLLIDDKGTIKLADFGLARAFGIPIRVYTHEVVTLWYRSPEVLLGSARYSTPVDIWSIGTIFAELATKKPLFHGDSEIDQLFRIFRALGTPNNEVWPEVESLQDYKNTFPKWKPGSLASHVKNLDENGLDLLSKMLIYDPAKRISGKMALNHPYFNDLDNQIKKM
T15 sequence (P14635 whole entry partner): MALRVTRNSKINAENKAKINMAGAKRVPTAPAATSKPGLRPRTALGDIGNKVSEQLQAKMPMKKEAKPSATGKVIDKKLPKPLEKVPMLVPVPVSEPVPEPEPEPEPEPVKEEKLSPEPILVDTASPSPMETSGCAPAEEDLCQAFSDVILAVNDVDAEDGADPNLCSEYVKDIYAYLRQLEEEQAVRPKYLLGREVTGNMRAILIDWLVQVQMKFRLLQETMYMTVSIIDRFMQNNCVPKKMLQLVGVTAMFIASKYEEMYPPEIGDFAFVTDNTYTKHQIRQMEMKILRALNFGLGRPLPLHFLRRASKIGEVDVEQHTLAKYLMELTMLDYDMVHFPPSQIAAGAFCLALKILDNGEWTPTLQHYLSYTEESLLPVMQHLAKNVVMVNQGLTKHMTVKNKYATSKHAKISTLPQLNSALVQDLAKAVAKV
T12 sequence (P32245 whole entry): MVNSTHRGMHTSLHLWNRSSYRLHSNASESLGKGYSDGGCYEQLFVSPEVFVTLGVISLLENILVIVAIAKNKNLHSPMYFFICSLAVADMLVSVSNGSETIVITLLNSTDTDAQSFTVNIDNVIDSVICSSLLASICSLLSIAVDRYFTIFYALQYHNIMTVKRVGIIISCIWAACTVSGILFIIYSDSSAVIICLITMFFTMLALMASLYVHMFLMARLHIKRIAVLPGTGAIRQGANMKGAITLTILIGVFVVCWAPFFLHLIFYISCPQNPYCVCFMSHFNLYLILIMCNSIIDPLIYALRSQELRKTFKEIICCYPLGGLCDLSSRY
T9 sequence (P51955 whole entry): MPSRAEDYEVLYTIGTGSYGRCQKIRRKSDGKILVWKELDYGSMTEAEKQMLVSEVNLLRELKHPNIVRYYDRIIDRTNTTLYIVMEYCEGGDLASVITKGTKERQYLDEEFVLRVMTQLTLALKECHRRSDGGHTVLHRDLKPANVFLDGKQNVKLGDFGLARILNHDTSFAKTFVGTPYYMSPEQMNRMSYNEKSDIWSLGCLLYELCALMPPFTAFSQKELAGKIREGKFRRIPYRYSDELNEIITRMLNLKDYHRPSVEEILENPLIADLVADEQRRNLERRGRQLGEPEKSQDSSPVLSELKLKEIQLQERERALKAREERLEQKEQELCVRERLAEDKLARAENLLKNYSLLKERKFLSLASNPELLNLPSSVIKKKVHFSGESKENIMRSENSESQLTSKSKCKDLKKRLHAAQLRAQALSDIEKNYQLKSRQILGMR
T8 sequence (P32238 whole entry): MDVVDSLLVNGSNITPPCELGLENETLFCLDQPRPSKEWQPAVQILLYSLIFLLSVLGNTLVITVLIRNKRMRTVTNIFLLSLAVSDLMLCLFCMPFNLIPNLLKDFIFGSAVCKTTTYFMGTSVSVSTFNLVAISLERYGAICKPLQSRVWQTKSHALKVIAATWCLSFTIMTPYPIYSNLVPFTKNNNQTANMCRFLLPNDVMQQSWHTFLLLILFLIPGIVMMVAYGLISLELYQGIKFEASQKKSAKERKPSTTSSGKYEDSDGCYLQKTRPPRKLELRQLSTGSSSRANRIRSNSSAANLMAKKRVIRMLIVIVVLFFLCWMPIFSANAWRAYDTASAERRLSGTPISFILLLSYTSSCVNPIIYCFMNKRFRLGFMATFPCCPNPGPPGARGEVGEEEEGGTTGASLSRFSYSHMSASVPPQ
T13 sequence (P47898 whole entry): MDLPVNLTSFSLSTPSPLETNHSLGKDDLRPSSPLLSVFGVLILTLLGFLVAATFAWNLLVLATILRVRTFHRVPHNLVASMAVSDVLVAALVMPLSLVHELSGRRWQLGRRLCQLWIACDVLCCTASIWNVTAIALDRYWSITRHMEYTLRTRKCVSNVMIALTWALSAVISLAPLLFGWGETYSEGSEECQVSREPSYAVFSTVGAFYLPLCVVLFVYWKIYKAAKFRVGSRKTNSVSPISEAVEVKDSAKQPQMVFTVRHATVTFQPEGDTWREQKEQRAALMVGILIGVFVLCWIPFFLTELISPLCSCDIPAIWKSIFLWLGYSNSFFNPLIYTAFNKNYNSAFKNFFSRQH
T1 sequence (Q9NWZ3 whole entry): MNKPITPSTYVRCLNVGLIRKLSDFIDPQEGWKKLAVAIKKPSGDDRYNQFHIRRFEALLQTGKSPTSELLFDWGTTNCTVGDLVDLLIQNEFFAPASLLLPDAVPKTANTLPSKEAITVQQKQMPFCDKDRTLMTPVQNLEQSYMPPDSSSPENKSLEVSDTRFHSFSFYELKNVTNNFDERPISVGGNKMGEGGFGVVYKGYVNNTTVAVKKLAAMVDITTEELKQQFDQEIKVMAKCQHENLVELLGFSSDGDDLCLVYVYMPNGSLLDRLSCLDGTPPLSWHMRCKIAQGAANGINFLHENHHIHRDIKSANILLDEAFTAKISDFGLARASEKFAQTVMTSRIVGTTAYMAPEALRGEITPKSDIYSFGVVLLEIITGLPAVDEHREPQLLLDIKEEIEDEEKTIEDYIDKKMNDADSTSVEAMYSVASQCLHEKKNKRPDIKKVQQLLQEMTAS
T6 sequence (P27361 whole entry): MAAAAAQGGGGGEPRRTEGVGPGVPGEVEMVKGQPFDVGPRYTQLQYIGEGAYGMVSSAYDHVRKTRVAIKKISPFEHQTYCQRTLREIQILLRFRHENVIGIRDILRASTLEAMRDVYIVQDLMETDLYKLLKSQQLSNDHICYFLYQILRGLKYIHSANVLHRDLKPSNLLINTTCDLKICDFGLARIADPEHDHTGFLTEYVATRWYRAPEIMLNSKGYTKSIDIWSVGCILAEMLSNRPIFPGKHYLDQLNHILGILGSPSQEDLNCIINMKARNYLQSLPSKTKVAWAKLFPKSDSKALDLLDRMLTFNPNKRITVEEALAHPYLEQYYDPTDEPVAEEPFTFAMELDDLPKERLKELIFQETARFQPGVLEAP
T7 sequence (O14757 whole entry): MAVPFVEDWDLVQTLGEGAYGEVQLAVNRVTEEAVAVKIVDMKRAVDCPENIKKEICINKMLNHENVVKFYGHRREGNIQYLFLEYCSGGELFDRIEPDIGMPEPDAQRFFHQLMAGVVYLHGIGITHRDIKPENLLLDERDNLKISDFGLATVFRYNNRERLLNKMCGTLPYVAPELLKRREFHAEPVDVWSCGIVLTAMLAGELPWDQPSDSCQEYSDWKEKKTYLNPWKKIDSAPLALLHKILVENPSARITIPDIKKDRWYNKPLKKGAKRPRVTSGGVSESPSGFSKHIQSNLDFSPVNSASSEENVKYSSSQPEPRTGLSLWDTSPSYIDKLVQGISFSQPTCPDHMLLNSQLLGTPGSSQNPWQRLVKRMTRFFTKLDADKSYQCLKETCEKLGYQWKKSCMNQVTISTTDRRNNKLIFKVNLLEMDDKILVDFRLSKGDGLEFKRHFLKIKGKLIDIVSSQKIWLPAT
T2 sequence (P32246 whole entry): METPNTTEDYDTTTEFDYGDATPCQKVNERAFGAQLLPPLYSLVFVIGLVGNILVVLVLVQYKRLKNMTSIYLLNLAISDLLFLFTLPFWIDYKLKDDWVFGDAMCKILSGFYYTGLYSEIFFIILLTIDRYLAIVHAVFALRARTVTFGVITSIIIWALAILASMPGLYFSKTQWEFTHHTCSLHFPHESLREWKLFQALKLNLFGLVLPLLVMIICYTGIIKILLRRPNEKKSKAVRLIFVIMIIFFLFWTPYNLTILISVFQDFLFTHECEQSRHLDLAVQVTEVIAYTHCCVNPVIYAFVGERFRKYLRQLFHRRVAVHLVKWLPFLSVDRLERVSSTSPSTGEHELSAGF

SMILES: CC1CCCN1C(=O)c1nc(C(=O)NCC(C)(C)O)sc1-c1ccc(C(O)(C(F)(F)F)C(F)(F)F)c(Cl)c1Cl (centres unmarked) [JNJ-61803534]
- activity at 1 µM (IRAK4(h)): 113%
- activity at 10 µM (IRAK4(h)): 112%
- inhibition at 1 µM (CCR1 (h)): < 10%
- inhibition at 10 µM (CCR1 (h)): < 10%
- activity at 1 µM (CHK2(h)): 107%
- activity at 10 µM (CHK2(h)): 111%
- IC50 (CAR): > 1500 nM
- tolerability (Beagle dogs; 10 mg/kg/day, weight loss and reduced food consumption in the fourth week, trend for increased ALP): clinically well tolerated during the first 3 weeks of treatment
- tolerability (Beagle dogs; 30 mg/kg/day, intestinal mucosal hemorrhages and slight hepatocellular lipid vacuolation in some animals): exceeded the maximum tolerated dose
- lymphocyte apoptosis in thymus (Beagle dogs; recovered after 1-month recovery period): dose-dependent lymphocyte apoptosis in thymus was observed
- AUC(0-t) ([1]; female): 142000 ng·h/mL
- Cmax ([1]; female): 7500 ng/mL
- AUC(0-t) ([1]; male): 118000 ng·h/mL
- Cmax ([1]; male): 7250 ng/mL
- NOAEL at 1 month ([1]; both sexes, 1 month oral): 3 mg/kg
- IC50 (LXRβ): > 1500 nM
- activity at 1 µM (MAPK1(h)): 91%
- activity at 10 µM (MAPK1(h)): 112%
- activity at 1 µM (CHK1(h)): 97%
- activity at 10 µM (CHK1(h)): 132%
- IC50 (hNav1.5): > 30000 nM
- Tmax ([2]; 100 mg single oral dose, fed, n=9): 12 h
- AUC(0-inf) [2, 4]: 8480 ng·h/mL
- Cmax [2, 4]: 35.9 ng/mL
- AUC(0-t) ([2]; both sexes, human, plasma, po, 10 mg, 10 mg single oral dose, fasted, n=6, mean (SD), read-out: AUC216h): 5180 ng·h/mL
- half-life ([2]; both sexes, human, plasma, po, 10 mg, 10 mg single oral dose, fasted, n=6, mean (SD), read-out: t1/2 (converted)): 168 h
- Tmax ([2]; both sexes, human, plasma, po, 10 mg, 10 mg single oral dose, fasted, n=6, read-out: tmax): 10 h
- AUC(0-inf) [2, 5]: 28700 ng·h/mL
- Cmax [2, 5]: 146 ng/mL
- AUC(0-t) ([2]; both sexes, human, plasma, po, 30 mg, 30 mg single oral dose, fasted, n=6, mean (SD), read-out: AUC216h): 17400 ng·h/mL
- half-life ([2]; both sexes, human, plasma, po, 30 mg, 30 mg single oral dose, fasted, n=6, mean (SD), read-out: t1/2 (converted)): 170 h
- Tmax ([2]; both sexes, human, plasma, po, 30 mg, 30 mg single oral dose, fasted, n=6, read-out: tmax): 6.02 h
- AUC(0-inf) [2, 6]: 100000 ng·h/mL
- Cmax [2, 6]: 700 ng/mL
- AUC(0-t) ([2]; both sexes, human, plasma, po, 100 mg, 100 mg single oral dose, fasted, n=9, mean (SD), read-out: AUC216h): 68400 ng·h/mL
- AUC(0-t) ([2]; both sexes, human, plasma, po, 100 mg, 100 mg single oral dose, fasted, n=9, mean (SD), read-out: AUClast): 99100 ng·h/mL
- half-life ([2]; both sexes, human, plasma, po, 100 mg, 100 mg single oral dose, fasted, n=9, mean (SD), read-out: t1/2 (converted)): 170 h
- Tmax ([2]; both sexes, human, plasma, po, 100 mg, 100 mg single oral dose, fasted, n=9, read-out: tmax): 6 h
- AUC(0-inf) [2, 7]: 90400 ng·h/mL
- Cmax [2, 7]: 602 ng/mL
- AUC(0-t) ([2]; both sexes, human, plasma, po, 100 mg, 100 mg single oral dose, fed, n=9, mean (SD), read-out: AUC216h): 61700 ng·h/mL
- AUC(0-t) ([2]; both sexes, human, plasma, po, 100 mg, 100 mg single oral dose, fed, n=9, mean (SD), read-out: AUClast): 89700 ng·h/mL
- half-life ([2]; both sexes, human, plasma, po, 100 mg, 100 mg single oral dose, fed, n=9, mean (SD), read-out: t1/2 (converted)): 168 h
- Tmax ([2]; both sexes, human, plasma, po, 100 mg, 100 mg single oral dose, fed, n=9, read-out: tmax): 12 h
- AUC(0-inf) [2, 8]: 201000 ng·h/mL
- Cmax [2, 8]: 1810 ng/mL
- AUC(0-t) ([2]; both sexes, human, plasma, po, 200 mg, 200 mg single oral dose, fasted, n=6, mean (SD), read-out: AUC216h): 154000 ng·h/mL
- AUC(0-t) ([2]; both sexes, human, plasma, po, 200 mg, 200 mg single oral dose, fasted, n=6, mean (SD), read-out: AUClast): 200000 ng·h/mL
- half-life ([2]; both sexes, human, plasma, po, 200 mg, 200 mg single oral dose, fasted, n=6, mean (SD), read-out: t1/2 (converted)): 164 h
- Tmax ([2]; both sexes, human, plasma, po, 200 mg, 200 mg single oral dose, fasted, n=6, read-out: tmax): 6 h
- half-life ([2]; both sexes, human, plasma, po, single oral doses 10 to 200 mg, read-out: plasma half-life, mean T1/2 values across the dose groups): 164 to 170 h
- IC50 ([3]; read-out: IC50 (95% confidence intervals), IL-17A production): 19 nM
- IC50 ([3]; read-out: IC50 (95% confidence intervals), IL-17F production): 22 nM
- IC50 ([3]; read-out: IC50 (95% confidence intervals), IL-22 production): 27 nM
- genetic toxicity (rat bone marrow): negative
- inhibition at 1 µM (CCKA (h) (CCK1)): < 10%
- inhibition at 10 µM (CCKA (h) (CCK1)): < 10%
- activity at 1 µM (NEK2(h)): 102%
- activity at 10 µM (NEK2(h)): 108%
- activity at 1 µM (CK2α2(h)): 92%
- activity at 10 µM (CK2α2(h)): 100%
- mode of action on PXR (PXR): possibly partial modulator
- IC50 (PXR; agonist and antagonist mode): 340 nM
- inhibition at 1 µM (MC4 (h)): < 10%
- inhibition at 10 µM (MC4 (h)): < 10%
- inhibition at 1 µM (5-HT5A (h)): < 10%
- inhibition at 10 µM (5-HT5A (h)): < 10%
- activity at 1 µM (Plk1(h)): 111%
- activity at 10 µM (Plk1(h)): 104%
- activity at 1 µM (CDK1/cyclinB(h)): 96%
- activity at 10 µM (CDK1/cyclinB(h)): 108%
